Test results as given in patent publication US20240342265A1, “E PROTEIN-MUTATED WEST NILE VIRUS USED AS LIVE[…] AND ONCOLYTIC DRUG FOR CANCER THERAPY” (priority 2023, published 2024).

Assays:
[1] = test system: SH-SY5Y cells (human neuroblastoma); test: Human neuroblastoma xenograft model in BALB/c nude mice; assay type: in vivo; conditions: Adriamycin group
Experimental: The attenuated WNV was tested for oncolytic virus activity. Under aseptic conditions, SH-SY5Y cells (4×106/0.1 ml/per mouse) were inoculated into the right flank region of SPF-grade BALB/c nude mice aged 8 to 10 weeks to establish a human neuroblastoma xenograft model. When the diameter of the subcutaneous tumor nodules reached 5˜6 mm (corresponding to a tumor volume of approximately 50 mm3˜100 mm3), the mice were randomly divided into groups ensuring that the difference in tumor volume between groups was <10%. Grouping and management information are as described in Table 4. The day of the first administration was recorded as D1.
The half-effective dose is 421 PFU.

[2] = test system: Neuro-2a cells (mouse-derived neuroblastoma); test: Bilateral mouse neuroblastoma model in A/JGpt mice, right-side intratumoral injection; assay type: in vivo
Experimental: Mouse-derived neuroblastoma cells (Neuro-2a cells, 1×10^8/0.1 ml/mouse) were inoculated into the bilateral lumbar region of A/JGpt female mice (SPF grade 5-week-old). When the diameter of subcutaneous tumor nodules reached 5-6 mm (about 50-100 mm^3), mice were randomly divided into groups per the <10% of tumor volume. The DS1-M2-1 was injected intratumorally only into the right-side tumor on day one.
During the test period, the body weight of each mouse was normal. […] Since the left-side tumor is the non-administered side, it is considered that the effect of DS1-M2-1 on the left-side tumor is a result of the immunotherapy effect.

[3] = Doxorubicin-Hydro group, left tumor
[4] = Doxorubicin-Hydro group, right tumor

| Structure (SMILES) | % T/C [1] | % TGITV [1] | % TGITW [1] | Tumor Volume (mm^3) Day 31 [1] | Tumor Weight [1] | Max % TGITV, L [2, 3] | No. of mice with tumor completely eliminated, D 22, L [2, 3] | No. of mice with tumor completely eliminated, No./Total, L [2, 3] | Max % TGITV, R [2, 4] | No. of mice with tumor completely eliminated, D 18, R [2, 4] | No. of mice with tumor completely eliminated, D 22, R [2, 4] | No. of mice with tumor completely eliminated, No./Total, R [2, 4] | Max % TGITV, L ([2]; Taxol 20 mg/kg, left tumor) | No. of mice with tumor completely eliminated, No./Total, L ([2]; Taxol 20 mg/kg, left tumor) | Max % TGITV, R ([2]; Taxol 20 mg/kg, right tumor) | No. of mice with tumor completely eliminated, No./Total, R ([2]; Taxol 20 mg/kg, right tumor) |
| --- | --- | --- | --- | --- | --- | --- | --- | --- | --- | --- | --- | --- | --- | --- | --- | --- |
| COc1cccc2c1C(=O)c1c(O)c3c(c(O)c1C2=O)C[C@@](O)(C(=O)CO)C[C@@H]3O[C@H]1C[C@H](N)[C@H](O)[C@H](C)O1 [Adriamycin, doxorubicin] | 37.43% | 63.27% | 53.12% | 468.07 ± 145.59 mm^3 | 0.406 ± 0.157 g | 84.23% | 3 | 3/10 | 83.25% | 1 | 2 | 3/10 | – | – | – | – |
| CC(=O)O[C@H]1C(=O)[C@@]2(C)[C@H]([C@H](OC(=O)c3ccccc3)[C@]3(O)C[C@H](OC(=O)[C@H](O)[C@@H](NC(=O)c4ccccc4)c4ccccc4)C(C)=C1C3(C)C)[C@]1(OC(C)=O)CO[C@@H]1C[C@@H]2O [Taxol, paclitaxel] | – | – | – | – | – | – | – | – | – | – | – | – | 50.74% | 0/4 | 46.73% | 0/4 |
